Values after ≈ are worked out from the molar mass of the structure shown. Where two headings read alike, the source gives them in different places.
Experiments:
[1] = Effect of storage on stability (heat, light, moisture); type: physicochemical; conditions: 60 ± 0.5 °C, 10 days
Experimental: All samples were sealed in transparent glass bottles and divided into three groups, each containing CRT/α-CD IC (500 mg), CRT/HP-β-CD IC (500 mg), CRT/γ-CD IC (500 mg), and intact CRT (500 mg). The first group was stored at 60 ± 0.5 °C for 10 days. The second group was stored at 25 ± 0.5 °C with a light intensity of 4500 ± 500 lx for 10 days. The third group was stored at 25 ± 0.5 °C with 75% relative humidity for 10 days. The CRT contents were sampled and measured on days 0, 5, and 10. Each test was repeated at least three times.

[2] = design: method as in PMID 16131146; conditions: mice, oral, cited from earlier work
[3] = Pharmacokinetics study after intragastric administration; type: in vivo; conditions: Sprague-Dawley, rat, plasma, po, SD rats, 20 mg/kg intragastric, n = 6
Experimental: Twenty-four SD rats were randomly divided into four groups and administered CRT/α-CD IC, CRT/HP-β-CD IC, CRT/γ-CD IC, or intact CRT. All rats were fasted for 12 h and only provided water before experiments. All samples at a dose of 20 mg/kg body weight were administered intragastrically. Blood samples (0.4 mL) were collected from the orbital venous plexus at predetermined time points (0.083, 0.167, 0.25, 0.5, 1, 2, 4, 6, 8, 12, and 24 h) into tubes containing heparin sodium. The blood samples were centrifuged immediately at 4000 rpm for 15 min; the supernatant layer of plasma was separated and stored at 4 °C for 24 h. CRT in plasma was extracted with 600 μL methanol with an internal standard of 10 μL ATRA from 200 μL plasma samples and centrifuged at 10,000 rpm for 15 min at 4 °C. The supernatant layer was transferred to a new tube, concentrated to remove solvents under the LSE-1K vacuum centrifuge concentrator (JTLIANGYOU, Changzhou, China), and redissolved in 200 μL of methanol for analysis. The concentration of CRT was determined using an HPLC (Waters HPLC system consisting of a 2695–2487 UV detector, Milford, MA, USA) using a COSMOSIL-C18 (150 mm × 4.6 mm, 5 μm) column with a detection wavelength of 424 nm. The injection volume was 20 μL, the column temperature was 35 °C, the mobile phase was methanol with water and glacial acetic acid in a ratio (v:v:v) of 92:7.7:0.3, and the flow rate was 1 mL/min. The pharmacokinetic parameters were calculated using DAS 2.0. Relative bioavailability percentage was calculated as follows:Relative bioavailability (%) = (AUC0–∞ IC/AUC0–∞ CRT) × 100 (2)

[4] = design: method as in PMID 21112749, PMID 21398065; conditions: humans, CRT or saffron tea orally, cited from earlier work
[5] = Dissolution test (USP paddle method); type: physicochemical; conditions: phosphate buffer pH 6.8, 900 mL, 100 rpm, 37 °C
Experimental: The dissolution of CRT, PMs, and ICs was evaluated using the USP (version 26) paddle method with a dissolution tester (Tianjin University Electronics Co., Ltd., Tianjin, China). The dissolution medium was phosphate buffer (pH 6.8, 900 mL); the paddles were rotated at 100 rpm at 37.0 ± 0.5 °C. A sample volume of 5 mL was withdrawn from the dissolution medium at predetermined sampling points, filtered using a […] microporous filter membrane, and analyzed via HPLC. All dissolution tests were performed in triplicate.

[6] = Solubility determination; type: physicochemical; conditions: thermodynamic from solid, 25 °C
Experimental: Drug solubility at 25 ± 0.5 °C was determined in water and phosphate buffer (pH 6.8). Excesses of CRT and each IC were added to each fluid and placed in a thermostatic water bath in the dark at 25 ± 0.5 °C with a constant shaking rate of 100 rpm for 72 h. After the equilibrium state was reached, the solutions were centrifuged for 15 min, and 2 mL of the supernatant was diluted with an appropriate amount of methanol. Drug concentrations were determined using HPLC.

relative content (retention) of CRT after thermal treatment [1]: 80% | AUC(0-inf) [3]: 2660 ± 196 ng·h/mL | Cmax [3]: 545 ± 23 ng/mL | Tmax [3]: 2 h | half-life [3]: 2.06 ± 0.237 h | AUC(0-t) ([3]; read-out: AUC0–12): 2410 ± 163 ng·h/mL | MRT last ([3]; read-out: MRT0–12): 3.03 ± 0.082 h | cumulative dissolution rate at 180 min [5]: 13% | solubility at 72 h ([6]; phosphate buffer, pH 6.86, aqueous buffer, buffer salt, read-out: Solubility of CRT in pH6.86 Buffer Salt): 1.84 ± 0.11 µg/mL | solubility at 72 h ([6]; water, read-out: Solubility of CRT in H2O): 1.23 ± 0.07 µg/mL (≈ 3.75 µM)
SMILES: CC(/C=C/C=C(\C)C(=O)O)=C\C=C\C=C(C)\C=C\C=C(/C)C(=O)O [CRT, Crocetin]
time of highest plasma concentration ([2]; dose of 117.2 mg/mL): approximately 2 h | highest plasma concentration of CRT [2]: 1249.3 ± 788.1 ng/mL | concentrations of CRT in the blood ([4]; based on the dose): 100.9 to 279.7 ng/mL | Tmax [4]: approximately 4.6 h
